# From PubChem BioAssay (NCI)
#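 The compound was tested at five concentrations on cells cultured in 96-well plates, with a 48-hour exposure period. At the GI50, growth is halved. TGI is the concentration that stops growth completely.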
# Columns and labels:
# Experiment in all cases: NCI tumour cell line growth inhibition, 48 h
# [1] = system: SK-OV-3 ovarian
# [2] = system: SF-268 CNS
# [3] = system: UACC-62 melanoma
# [4] = system: TK-10 renal
# [5] = system: RPMI-8226 leukemia
# [6] = system: HOP-92 NSCLC
# [7] = system: MALME-3M melanoma
# [8] = system: 786-0 renal
# [9] = system: OVCAR-4 ovarian
# [10] = system: HCC-2998 colon
Compound,GI50 [1] [µM],TGI [1] [µM],GI50 [2] [µM],TGI [2] [µM],GI50 [3] [µM],TGI [3] [µM],GI50 [4] [µM],TGI [4] [µM],GI50 [5] [µM],TGI [5] [µM],GI50 [6] [µM],TGI [6] [µM],GI50 [7] [µM],TGI [7] [µM],GI50 [8] [µM],TGI [8] [µM],GI50 [9] [µM],TGI [9] [µM],GI50 [10] [µM],TGI [10] [µM]
CC(=O)OCC1OC([Se-])C(OC(C)=O)C(OC(C)=O)C1OC(C)=O.N#CCC[PH+](CCC#N)CCC#N.[Au+] (stereo not given),37.1,> 94.6,10.1,> 100,5.12,30.6,14.2,46.9,3.09,14.4,12.1,52.2,15,48.3,6.3,53.3,13.8,65.8,12.5,43.4
O=C(Nc1ccc(I)cc1)c1cccc([N+](=O)[O-])c1O,3.05,44.9,4.15,> 100,3.77,24,3.56,> 100,1.66,6.73,0.373,3.22,2.47,9.12,3.53,24.2,2.61,25,4.19,44.3
N#Cc1ccc(C(C2C(=O)NC(=O)NC2=O)C2C(=O)NC(=O)NC2=O)cc1,–,> 100,–,> 100,–,> 100,–,> 100,–,> 100,–,> 100,–,> 100,–,> 100,–,> 100,–,> 100
CCC1c2cc3n(c(=O)c2COC1O)Cc1c-3nc2ccccc2c1Cl (stereo not given),–,> 100,–,> 100,–,> 100,–,> 100,–,> 100,–,> 100,–,> 100,–,> 100,–,> 100,–,> 100
c1ccc(-c2cn(-c3ccccc3)c(-c3ccccc3)n2)cc1,19.3,34,14.8,29.5,15.3,29.8,14.7,30.9,2.31,5.47,20.1,50.4,19.5,36.7,2.3,4.67,16.4,31,7.82,20.6
COc1cc2c3c(n(CCCN4CCCNCC4)c(=O)c2cc1OC)-c1cc2c(cc1C3=O)OCO2,4,15.5,0.758,11.2,0.515,6.04,1.35,7.54,0.571,2.1,0.135,0.471,2.47,11.9,0.268,1.14,2.91,11.1,3.07,9.45
O=[N+]([O-])/C=C/c1cc2ccc3ccccc3c2[nH]1,–,17.2,–,4.02,–,3.51,–,3.08,–,0.708,–,3.64,–,3.31,–,3.07,–,4.95,–,3.5
